For 6 compounds, MIC results are on record in DBAASP.

Structures are written as SMILES. In brackets after ≈: the same amount, converted by molar mass. Several values for one entry are separate records, joined by “and”; a condition that tells them apart may be missing. Identical values can stand only once. A value given as a limit tells only on which side of the number the result lay.

Assay in all cases: ≥ marks a high value that may be exact or a test limit, other limits are often not marked, values filed in µg/mL are converted to µM
Assay [1] has as its system Candida albicans ATCC 14053.
Assay [2] relates to Staphylococcus aureus ATCC 12600.
Assay [3] has as its system Escherichia coli ATCC 11775.
In assay [4] the test system is Micrococcus luteus ATCC 49732.
Assay [5] deals with Escherichia coli B.
The test system of assay [6] is Streptococcus pneumoniae.
Assay [7] has as its system Bacillus megaterium.
The subject of assay [8] is Pseudomonas aeruginosa.
Assay [9] deals with Saccharomyces cerevisiae.
Assay [10] deals with Candida albicans.
For assay [11], the system named is Enterobacter cloacae.
In assay [12] the test system is Vibrio cholerae.
Assay [13] has as its system Listeria monocytogenes.
Assay [14] has as its system Salmonella typhimurium.
The subject of assay [15] is Staphylococcus aureus.
Assay [16] deals with Aerococcus viridans.
Assay [17] deals with Klebsiella pneumoniae.
For assay [18], the system named is Salmonella enterica subsp. enterica serovar Enteritidis.
Assay [19] relates to Staphylococcus haemolyticus.
In assay [20] the test system is Clostridium perfringens.
Assay [21] concerns Candida krusei ATCC 6258.
Assay [22] relates to Enterococcus faecalis ATCC 4028.
For assay [23], the system named is Candida glabrata ATCC 90030.
In assay [24] the test system is Pseudomonas aeruginosa ATCC 27853.
Assay [25] has as its system Enterobacter cloacae ATCC 13047.
In assay [26] the test system is Staphylococcus epidermidis ATCC 12228.
Assay [27] deals with Escherichia coli ATCC 25922.
The subject of assay [28] is Staphylococcus aureus ATCC 29213.
For assay [29], the system named is Candida albicans ATCC 90028.
Assay [30] relates to Xanthomonas citri.
Assay [31] deals with Agrobacterium tumefaciens GV3101.
Assay [32] concerns Methylobacterium sp.
Assay [33] concerns Sinorhizobium meliloti USDA 1002.
The subject of assay [34] is Pseudomonas aeruginosa 1.
The subject of assay [35] is Staphylococcus aureus ATCC 25923.
Assay [36] relates to Escherichia coli.
For assay [37], the system named is Pseudomonas aeruginosa 2.
The test system of assay [38] is Escherichia coli K88.
Assay [39] concerns Salmonella enterica subsp. enterica serovar Pullorum C79-13.
The subject of assay [40] is Pseudomonas aeruginosa CICC 21625.
The subject of assay [41] is Pseudomonas aeruginosa CICC 21630.
Assay [42] deals with Escherichia coli UB1005.
Assay [43] deals with Pseudomonas aeruginosa PAO1.
Assay [44] deals with Acinetobacter baumannii.
The test system of assay [45] is Salmonella enterica subsp. enterica serovar Typhimurium C77-31.
The test system of assay [46] is Escherichia coli K99.
The subject of assay [47] is Salmonella enterica subsp. enterica serovar Typhimurium ATCC 14028.

What is called MIC is the lowest concentration that inhibits growth of the organism. Lower therefore signals greater potency. For the compound `CC(C)[C@H](NC(=O)[C@H](C)NC(=O)[C@H](C)NC(=O)CNC(=O)[C@@H]1CCCN1)C(=O)N[C@@H](Cc1ccccc1)C(=O)N[C@@H](CCCCN)C(=O)O` [PGAAVFK], the MIC was no less than 36 µM in assay [1], 12 µM (≈ 8.27 µg/mL) in assay [2], 12 µM (≈ 8.27 µg/mL) in assay [3] and no less than 36 µM in assay [4].

Turning to `CC[C@H](C)[C@H](NC(=O)[C@H](CC(C)C)NC(=O)[C@H](CO)NC(=O)[C@@H](NC(=O)[C@@H](NC(=O)[C@H](CC(C)C)NC(=O)CN)C(C)C)[C@@H](C)O)C(=O)N[C@@H](CCCCN)C(=O)NCC(=O)N[C@@H](C)C(=O)NCC(=O)N[C@@H](CCCCN)C(=O)N[C@@H](CC(C)C)C(=O)N[C@@H](CC(C)C)C(=O)NCC(=O)NCC(=O)N[C@@H](CC(C)C)C(=O)N[C@@H](Cc1ccccc1)C(=O)NCC(=O)N[C@@H](CO)C(=O)N[C@H](C(=O)N[C@H](C(=O)NCC(=O)NCC(=O)N[C@@H](CCC(N)=O)C(=O)N[C@@H](CO)C(=O)O)[C@@H](C)O)C(C)C` [GLVTSLIKGAGKLLGGLFGSVTGGQS], the MIC in assay [5] was 6.25 µM (≈ 15.1 µg/mL); in assay [6], 6.25 µM (≈ 15.1 µg/mL); in assay [7], 25 µM (≈ 60.4 µg/mL); in assay [8], 3.1 µM (≈ 7.5 µg/mL); in assay [9] it was no less than 50 µM; in assay [10], 50 µM (≈ 121 µg/mL). For the same compound, the MIC in [11] came to 12.5 µM (≈ 30.2 µg/mL); in [12], 25 µM (≈ 60.4 µg/mL); in assay [13] it was 25 µM (≈ 60.4 µg/mL); in assay [14], 3.1 µM (≈ 7.5 µg/mL); in assay [15] it was 6.25 µM (≈ 15.1 µg/mL); in assay [16], 3.1 µM (≈ 7.5 µg/mL). Also, the MIC in assay [17] is 6.25 µM (≈ 15.1 µg/mL); in assay [18], 3.1 µM (≈ 7.5 µg/mL); in assay [19] it was no less than 50 µM; in assay [20], no less than 50 µM.

As to `CC[C@H](C)[C@H](NC(=O)[C@H](CC(C)C)NC(=O)[C@H](CCCCN)NC(=O)[C@H](CCCCN)NC(=O)[C@@H](NC(=O)[C@H](CC(C)C)NC(=O)[C@H](CCCCN)NC(=O)[C@@H]1CCCN1C(=O)[C@@H](NC(=O)[C@H](CC(C)C)NC(=O)[C@H](CCCCN)NC(=O)[C@H](Cc1ccccc1)NC(=O)[C@@H](N)Cc1ccccc1)[C@@H](C)CC)C(C)C)C(=O)N[C@@H](CCCCN)C(=O)N[C@@H](C)C(=O)N[C@@H](Cc1ccccc1)C(=O)N[C@@H](CCCCN)C(N)=O` [FFKLIPKLVKKLIKAFK], the MIC in [21] was determined as 4.7 µM (≈ 9.69 µg/mL); in [22], 1.2 µM (≈ 2.47 µg/mL); in [23], 4.7 µM (≈ 9.69 µg/mL); in assay [24], 2.3 µM (≈ 4.74 µg/mL); in assay [25] it was 4.7 µM (≈ 9.69 µg/mL); in assay [26], 2.3 µM (≈ 4.74 µg/mL). In addition, the MIC turned out to be 1.2 µM (≈ 2.47 µg/mL) in [27], 2.3 µM (≈ 4.74 µg/mL) in assay [28] and 4.7 µM (≈ 9.69 µg/mL) in assay [29].

Consider `CC[C@H](C)[C@H](NC(=O)[C@H](C)NC(=O)[C@H](CCCCN)NC(=O)[C@@H](NC(=O)[C@H](CC(C)C)NC(=O)[C@H](C)NC(=O)[C@H](CCCCN)NC(=O)[C@H](Cc1ccccc1)NC(=O)[C@@H](NC(=O)[C@H](C)NC(=O)[C@H](CCCCN)NC(=O)CNC(=O)[C@@H](NC(=O)[C@H](CCCCN)NC(=O)[C@@H](NC(=O)[C@@H](NC(=O)[C@H](Cc1ccccc1)NC(=O)[C@H](CCCCN)NC(=O)[C@H](CC(C)C)NC(=O)[C@H](CC(C)C)NC(=O)[C@@H](N)CCCCN)C(C)C)[C@@H](C)O)C(C)C)[C@@H](C)CC)[C@@H](C)CC)C(=O)O` [KLLKFVTKVGKAIFKALIKAI], for which the MIC in assay [30], in assay [31], in assay [32] and in [33] was 3 µM (≈ 6.99 µg/mL) in each case.

For `CC[C@H](C)[C@H](NC(=O)CN)C(=O)NCC(=O)N[C@@H](C)C(=O)N[C@H](C(=O)N[C@@H](CC(C)C)C(=O)N[C@@H](CCCCN)C(=O)N[C@@H](Cc1c[nH]c2ccccc12)C(=O)N[C@@H](CC(C)C)C(=O)N1CCC[C@H]1C(=O)N[C@@H](C)C(=O)N[C@@H](CC(C)C)C(=O)N[C@H](C(=O)N[C@@H](CCCCN)C(=O)N[C@@H](CCCN=C(N)N)C(=O)N[C@@H](CCCCN)C(=O)N[C@@H](CCCN=C(N)N)C(=O)N[C@@H](CCC(N)=O)C(=O)N[C@@H](CCC(N)=O)C(=O)O)[C@@H](C)CC)C(C)C` [GIGAVLKWLPALIKRKRQQ], the MIC in assay [34] was 1.15 µM (≈ 2.5 µg/mL); in assay [35], 0.0575 µM (≈ 0.125 µg/mL); in [24] it was 2.3 µM (≈ 5 µg/mL); in [27], 0.575 µM (≈ 1.25 µg/mL); in assay [36], 0.405 µM (≈ 0.88 µg/mL); in [15] it was 0.115 µM and 0.163 µM. In assay [37], this compound had an MIC of 4.6 µM (≈ 10 µg/mL).

As for `CC[C@H](C)[C@H](N)C(=O)N[C@@H](CCCN=C(N)N)C(=O)N1CCC[C@H]1C(=O)N[C@H](C(=O)N[C@H](C(=O)N[C@@H](CCCN=C(N)N)C(=O)N1CCC[C@H]1C(=O)N[C@H](C(=O)N[C@H](C(=O)N[C@@H](CCCN=C(N)N)C(=O)N1CCC[C@H]1C(=O)N[C@H](C(=O)N[C@H](C(=O)N[C@@H](CCCN=C(N)N)C(=O)N1CCC[C@H]1C(=O)N[C@H](C(N)=O)[C@@H](C)CC)[C@@H](C)CC)[C@@H](C)CC)[C@@H](C)CC)[C@@H](C)CC)[C@@H](C)CC)[C@@H](C)CC` [IRPIIRPIIRPIIRPI], the MIC in assay [38] is 4 µM (≈ 7.74 µg/mL); in assay [39], 16 µM (≈ 31 µg/mL); in assay [40], no less than 64 µM; in [24], greater than 64 µM; in assay [8], greater than 64 µM; in assay [27], 16 µM (≈ 31 µg/mL). In addition, the MIC is no less than 64 µM in assay [41]; 16 µM (≈ 31 µg/mL) in [42]; greater than 64 µM in [43]; 8 µM (≈ 15.5 µg/mL) in assay [44]; 16 µM (≈ 31 µg/mL) in assay [45]; 8 µM (≈ 15.5 µg/mL) in [46]. Further, the minimal inhibitory concentration (MIC) was 16 µM (≈ 31 µg/mL) in [36], 16 µM (≈ 31 µg/mL) in assay [47] and 32 µM (≈ 61.9 µg/mL) in [17].
